The series can be described thus: Human HepG2 cell viability assay in 384 well format. The class given is toxicity, cell-based. On the set-up: dose 125 nL, time 70.5 hour; concentration not given beside the values. Conditions: HepG2 cells, read-out: Inhibition.

This passage reports cytotoxicity results from ChEMBL document CHEMBL3507680, “University of Dundee, Gates Library screen for HepG2 cell viability”.

Each structure is given as a SMILES string.

On to `Cc1ccccc1C(N)c1ccncc1` (configuration not stated), for which the cytotoxicity at 70.5 h is -3.67%.

`Cc1cc(C)n(CCNCc2cc(-c3ccccc3)c[nH]c2=O)n1`: the cytotoxicity at 70.5 h was -9.26%. Regarding `O[C@@H]1C[C@H]2CN(CC3CCCCC3)[C@H](Cc3ccccc3)CN2C1`, the cytotoxicity at 70.5 h came to 24.4%.

Turning to `Cc1nn(C)cc1CN1CCc2nc3sccc3c(=O)n2CC1`, the cytotoxicity at 70.5 h is -9.47%. With `CCn1cncc1CN1CCc2nc3sccc3c(=O)n2CC1`, the cytotoxicity at 70.5 h was -5.29%.

In the case of `Cc1ccc(-c2nc(C3CCN(C(=O)c4ccn(C)n4)CC3)no2)cn1`, the cytotoxicity at 70.5 h is -10.5%. In the case of `CCC(=O)N1CCC(c2nc(N3CCCCC3)ncc2S(C)(=O)=O)CC1`, the cytotoxicity at 70.5 h was -2.83%. In the case of `CCN(CC)C(=O)CN1CCC2(C=Cc3cc(Cl)c(C)cc3O2)CC1` it was 7.43%. On to `CS(=O)(=O)c1cnc(N2CCCC2)nc1C1CCN(C(=O)C2CC2)CC1`, for which the cytotoxicity at 70.5 h amounted to 0.997%. `COc1ccc(C(C)N(C)Cc2c(C(C)C)[nH]c3ncccc23)cc1` (configuration not stated): the cytotoxicity at 70.5 h was found to be 20.8%.

`O=C(NCCCO)C1(CC2CC(c3ccc(F)cc3)=NO2)CCOCC1` (configuration not stated): the cytotoxicity at 70.5 h was -5.38%.

With `CCc1ncc(CN2C[C@@H]3C[C@@H](O)CN3C[C@@H]2Cc2ccccc2)cn1`, the cytotoxicity at 70.5 h was -5.41%. As for `Cc1cc(Nc2cnccn2)cc(C2CCCNC2)n1` (configuration not stated), the cytotoxicity at 70.5 h is -2.88%. With `Cc1cc(N(C)C)nc(C2COCCN2Cc2cscn2)n1` (configuration not stated), the cytotoxicity at 70.5 h stood at 18%. For the molecule `Cc1cc(NC2CC3(CCN(Cc4ncccc4F)C3)C2)ncn1` (configuration not stated), the cytotoxicity at 70.5 h is -3.79%. With `Cc1ocnc1C(=O)N(C)[C@@H]1CC[C@@H](Oc2ccccc2)[C@@H]1O`, the cytotoxicity at 70.5 h is -5.13%. For the molecule `Cc1nn(C)cc1S(=O)(=O)N[C@@H]1CCC[C@@H](N2CCCC2)[C@@H]1O`, the cytotoxicity at 70.5 h is -9.32%. In the case of `Cc1nn(C)cc1S(=O)(=O)N[C@@H]1CC[C@@H](n2ccnc2C)[C@@H]1O` it was 17.7%.

Consider `Cc1nccn1[C@@H]1CC[C@@H](NC(=O)CCOc2ccccc2)[C@H]1O`, for which the cytotoxicity at 70.5 h amounted to 16.9%. `CN(C)CCn1nc(C2CCN(Cc3ccccc3)C2)c2cccnc21` (configuration not stated): the cytotoxicity at 70.5 h is 31.8%.

As for `COCC(=O)N1CCCCC1c1nc(CN(C)C(C)=O)cc(N(C)C)n1` (configuration not stated), the cytotoxicity at 70.5 h came out at 50.7%. As to `Nc1ncc(-c2ccc(C(F)(F)F)cc2)c(C2CCCNC2)n1` (configuration not stated), the cytotoxicity at 70.5 h came out at 0.61%.

As to `CN1CCN([C@@H]2CN(C(=O)c3cc4ccc(F)cc4[nH]3)C[C@H]2O)CC1`, the cytotoxicity at 70.5 h was -3.6%. Regarding `CCC(=O)N1CCCCC1c1nc(CN(C)C(C)=O)cc(N(C)C)n1` (configuration not stated), the cytotoxicity at 70.5 h is -1.37%. In the case of `CN(C)[C@@H]1CN(C(=O)c2cc3cccc(F)c3[nH]2)C[C@H]1O`, the cytotoxicity at 70.5 h was -2.67%. To `Cc1ncc(CNC(=O)Cc2cccs2)c(C2CCCN2C)n1` (configuration not stated) belongs -4.94%. Turning to `Cc1ncc(CNC(=O)CCc2c(C)noc2C)c(C2CCCN2C)n1` (configuration not stated), the cytotoxicity at 70.5 h is -3.48%. For `O=C(Cc1cccs1)N1CCCCC1c1ccn2ccnc2n1` (configuration not stated), the cytotoxicity at 70.5 h was -5.26%. On to `Cc1ncc(CNC(=O)Cc2ccsc2)c(C2CCCN2C)n1` (configuration not stated), for which the cytotoxicity at 70.5 h is -5.12%.

In the case of `Cc1ccccc1CN1CCOC(c2nccc(CN(C)C)n2)C1` (configuration not stated), the cytotoxicity at 70.5 h is -8.08%. Consider `CN(C)Cc1ccnc(C2CN(CCCc3ccccc3)CCO2)n1` (configuration not stated), for which the cytotoxicity at 70.5 h was -6.75%. Turning to `CN(C)CC(=O)N1CCCC1c1cncc(Oc2ccc(F)cc2)n1` (configuration not stated), the cytotoxicity at 70.5 h was 11.5%.

In the case of `Cc1noc(C)c1-c1cccc(CC2CCN(C(=O)CN)C2)n1` (configuration not stated), the cytotoxicity at 70.5 h was -4.83%.

With `Cc1cccc(Nc2nccnc2C2CCCN(CC(=O)N(C)C)C2)n1` (configuration not stated), the cytotoxicity at 70.5 h is -7.55%. To `Nc1nc(C2CCN(C(=O)c3cnco3)CC2)cs1` belongs -5.18%; to `CC(=O)N1CCC(c2nccnc2Nc2ncc(C)s2)CC1`, -10.6%. In the case of `NC(=O)C1(c2cnccn2)CCCN1Cc1ccc(Cl)c(F)c1` (configuration not stated) it was -5.01%; in that of `COCCC(=O)N1CCC(c2cncc(Oc3cccnc3)n2)CC1`, -0.961%. To `CC(C)(N)C(=O)N1CCCC1c1cncc(Oc2ccccc2)n1` (configuration not stated) belongs 2.03%. With `Cn1ccnc1CN1CCOC(C)(C(=O)N2CCOCC2)C1` (configuration not stated), the cytotoxicity at 70.5 h worked out at 1.29%. As for `Cc1cccc(CN2CCOC(C)(C(=O)N3CCOCC3)C2)n1` (configuration not stated), the cytotoxicity at 70.5 h amounted to 11%. In the case of `CC(=O)Nc1nc(C2CCN(C(=O)c3ccncc3)CC2)cs1`, the cytotoxicity at 70.5 h is 24.9%. As to `CC1(C(=O)N2CCOCC2)CN(Cc2c[nH]cn2)CCO1` (configuration not stated), the cytotoxicity at 70.5 h is -0.532%. In the case of `Cc1cc(CN2CCN(S(C)(=O)=O)CC(C(=O)N(C)C)C2)no1` (configuration not stated) it was 0.351%. Consider `CC(=O)N1CCN(c2ccnc(C)n2)CC(COc2ccccc2)C1` (configuration not stated), for which the cytotoxicity at 70.5 h is -3.78%. Regarding `NC(=O)C1CN(C(=O)Cc2cccnc2)CCN(C2CCOCC2)C1` (configuration not stated), the cytotoxicity at 70.5 h was found to be 0.12%. As for `Oc1nc(N2CCOCC2)nc2c1CCN(Cc1ccccc1)CC2`, the cytotoxicity at 70.5 h was -1.05%.

Turning to `CC(=O)Nc1nc(C2CCN(C(C)C)CC2)cs1`, the cytotoxicity at 70.5 h was -1.18%. `CC(C)C(=O)N1CCCC(c2cncc(Oc3cccnc3)n2)C1` (configuration not stated): the cytotoxicity at 70.5 h was -2.17%. To `O=C(Cc1ccsc1)N1CCOC(c2nc(-c3ncccn3)no2)C1` (configuration not stated) belongs -2.86%.

With `Cc1n[nH]c(C)c1-c1nccnc1CC1CCN(C(C)C)CC1`, the cytotoxicity at 70.5 h worked out at 13.4%. As to `Cc1cc(CCC(=O)N2CCCC2)nc(C2CCCN2)n1` (configuration not stated), the cytotoxicity at 70.5 h is -1.61%. Turning to `CNC(=O)C1(c2cnccn2)CCCN1C(=O)c1ccc(OC)cc1` (configuration not stated), the cytotoxicity at 70.5 h was 18.7%. Consider `CNC(=O)C1(c2cnccn2)CCCN1C(=O)c1ccc(F)cc1` (configuration not stated), for which the cytotoxicity at 70.5 h is 22.8%. For the molecule `COc1ccc(Oc2nccnc2C2CCN(C(C)=O)CC2)cc1`, the cytotoxicity at 70.5 h is -4.84%.

For `CN1CCCCC[C@@H]2[C@@H]1[C@H](c1ccccc1)CN2C(=O)c1cccnc1`, the cytotoxicity at 70.5 h was found to be 3.63%. As to `CN1CC(c2cc(O)nc(NCc3ccc(Cl)cc3)n2)CC1=O` (configuration not stated), the cytotoxicity at 70.5 h was -5.19%. Regarding `CC(=O)N1CCC(c2nccnc2-c2ccc(F)cc2)CC1`, the cytotoxicity at 70.5 h was -0.029%. With `COCCC(=O)N1CCC(c2cc(O)n(C)n2)C1` (configuration not stated), the cytotoxicity at 70.5 h was determined as 1.63%. In the case of `CC(=O)N1CCC(c2nccnc2-c2ccc(F)c(F)c2)CC1` it was -0.906%; in that of `Nc1nc2nc(C3CCCN(C(=O)c4cnccn4)C3)ccc2s1` (configuration not stated), -3.81%. To `CNC(=O)c1ccc(C2CN(C(=O)c3scnc3C)CCO2)nc1` (configuration not stated) belongs -3.13%. To `Cc1cccnc1C(=O)N1CCC(Cc2cnc3[nH]ccc3c2)CC1` belongs 21.2%. Consider `CNC(=O)C1(c2cnccn2)CCCN1C(=O)c1ncccc1C` (configuration not stated), for which the cytotoxicity at 70.5 h is -5.43%. With `O=S(=O)(N1CCCCC1)N1CCC(Oc2cnccn2)CC1`, the cytotoxicity at 70.5 h was -2.24%. To `O=C(N[C@@H]1CC[C@@H](n2ccnc2)[C@@H]1O)c1cc2c(s1)CCC2` belongs 1.51%; to `COc1ccc(CN(C)[C@@H]2CN(C(=O)c3ccnn3C)C[C@H]2O)cc1`, -3.38%. As for `CS(=O)(=O)N1CCN(Cc2cccs2)CC(C(N)=O)C1` (configuration not stated), the cytotoxicity at 70.5 h was -2.16%.

`COc1ccc(CN(C)[C@@H]2CN(C(=O)c3cncs3)C[C@H]2O)cc1`: the cytotoxicity at 70.5 h was found to be 0.0164%. For `COCCN(C(=O)c1ccccn1)c1nc2c(s1)CCc1c-2cnn1C`, the cytotoxicity at 70.5 h was found to be 14.7%. To `CN(C)S(=O)(=O)N1CCN(Cc2ccnc(N3CCCC3)n2)CC1` belongs -1.31%. In the case of `Cn1nc(C2CN(C(=O)c3cccnc3)C2)c2nccnc21` it was -3.75%; in that of `Cn1ccc(C(=O)N2CCCC(c3cc(O)n(C)n3)C2)n1` (configuration not stated), 28%. For the molecule `COCCN1CCC(c2cncc(-c3ccccc3C)n2)CC1`, the cytotoxicity at 70.5 h was -4.28%. Turning to `Cc1ccccc1-c1cncc(C2CCN(Cc3cnn(C)c3)CC2)n1`, the cytotoxicity at 70.5 h was -9.46%.

With `Cc1cc(C2CCCN(C(=O)c3cccnc3)C2)ccn1` (configuration not stated), the cytotoxicity at 70.5 h is -11.1%. In the case of `CN1CCCC[C@@H]2[C@H]1[C@@H](c1ccccc1)CCN2C(=O)c1cccnc1` it was -7.01%; in that of `CN(C)CC(=O)N1CC(c2nn(C)c3nccnc23)C1`, -6.77%.

As for `Cc1cc(C)nc(Nc2cccc(C3CCCN(CC4CC4)C3)n2)n1` (configuration not stated), the cytotoxicity at 70.5 h is -5.69%.

For `CCc1c(C)nc(C2CCCN2C(=O)c2cc(C)no2)nc1O` (configuration not stated), the cytotoxicity at 70.5 h stood at 10.5%. In the case of `CCc1c(C)nc2cc(C3CCN(CCc4ccccc4)C3)nn2c1O` (configuration not stated), the cytotoxicity at 70.5 h is -0.223%.

For `NC(=O)C1CCCN(S(=O)(=O)c2cnn(-c3ccccc3)c2)C1` (configuration not stated), the cytotoxicity at 70.5 h is -1.76%.

Take `CC(C)CCN(C)Cn1ncc2cn(-c3ccccc3)nc2c1=O`: the cytotoxicity at 70.5 h came out at 14.5%.

Take `CC(C)N(C(=O)Cn1c(-c2ccco2)cc2cccnc21)C(C)C`: the cytotoxicity at 70.5 h was -15.1%. With `O=C(Cn1c(-c2ccco2)cc2cccnc21)N1CCCC1`, the cytotoxicity at 70.5 h was -8.97%.

Regarding `Cc1csc(C(Cc2ccsc2)NC(=O)CN(C)Cc2ccccn2)n1` (configuration not stated), the cytotoxicity at 70.5 h is -5%. `CN(CC(=O)NC(Cc1ccsc1)c1cccnc1)Cc1cccnc1` (configuration not stated): the cytotoxicity at 70.5 h turned out to be 19.4%. Regarding `CN(C)c1ncc(-c2ccc(C(N)=O)cc2)c(C2CCNC2)n1` (configuration not stated), the cytotoxicity at 70.5 h was -2.25%.

In the case of `Cn1nc(C2CCN(C(=O)CN3CCCCC3)CC2)c2cccnc21`, the cytotoxicity at 70.5 h was -4.57%.

With `Cc1n[nH]cc1CNCC1(c2ccc3c(c2)OCO3)CCOCC1`, the cytotoxicity at 70.5 h was -5.66%. As to `Cc1n[nH]cc1CNCC1(c2cccc(F)c2)CCOCC1`, the cytotoxicity at 70.5 h was -5.63%. In the case of `Cc1cc(CCC(=O)N(C)C)nc(C2CCCCN2)n1` (configuration not stated) it was -5.77%; in that of `COc1cccc(CN(Cc2ncc[nH]2)Cc2ccco2)c1`, -2.53%.

Regarding `COc1ccc(OC)c(CN(Cc2ccco2)Cc2[nH]cnc2C)c1`, the cytotoxicity at 70.5 h was -10.2%. Take `O[C@@]1(c2ccccn2)CC[C@H]2CN(Cc3ccccn3)C[C@H]21`: the cytotoxicity at 70.5 h is -0.173%. Consider `Cc1c[nH]nc1C1CCCN1Cc1nccn1C` (configuration not stated), for which the cytotoxicity at 70.5 h was -4.65%. Take `c1cc2nccc(CC3CCCN(C4CCOCC4)CC3)c2cn1` (configuration not stated): the cytotoxicity at 70.5 h was -1.46%.
